Patent US10336757B2, “Treatment of neurodegenerative diseases through inhibition of HSP90” (Sloan-Kettering Institute for Cancer Research, priority 2006, dated 2019)

Key:
[1] = tested on: p35 and tau phosphorylation; assay: Five day PU-DZ8 treatment of nine-month old JNPL3 (P301L tau) mice, whole brain; type: in vivo
Description: Transgenic mice: Transgenic mice, JNPL3 line (59) overexpressing mutant human tau (P301L, 4R0N) were used in this study, Mice were heterozygous and on a mixed hybrid genetic background composed of C57BL/DBA2/SW, as published in ref. 59. These mice develop NFTs in the basal telencephalon, diencephalon, brainstem, and spinal cord, with severe pathology accompanied by degeneration in the spinal cord leading to dystonia, paralysis, and death in mice>12 months in age. Nine month-old male JNPL3 mice (n=2) were treated intraperitoneally with PU-DZ8 or vehicle for 5 days. Mice were sacrificed 12 h after last treatment by cervical dislocation under anesthesia.
To further examine the effect of Hsp90 on tau phosphorylation, we used the JNPL3 line of mice expressing mutant (P301L) tau protein (59). Genetic analyses have linked mutations in the tau gene to FTDP-17 (60, 61). Over 20 distinct pathogenic mutations have been identified, with P301L as the most common mutation in tauophaties (33). […] The tau protein in JNPL3 is predominantly human and is phosphorylated at multiple sites: T181 (AT270), S202/T205 (AT8), T212 (AT100), T231 (AT180), S262, S396/S404, S409 and 5422 (59, 62). […] The degree of p35 expression translated well into alleviation of phosphorylation. […] However, in mice where effects were more prominent and p35 expression declined to approximately 20% as compared to control, a significant effect on tau phosphorylation at S202/T205 and T212/S214 and a 50% reduction on T231 was observed. We could not detect a significant amount of tau phosphorylation at T181, site found to be hyperphosphorylated in PHF, tangles and neurofilaments (65). Again, whole brain expression of cdk5 was not affected (FIG. 3).

[2] = tested on: mutant tau (HT7), p35, cdk5, Hsp70; assay: One dose PU-DZ8 in JNPL3 mice, S1 and P3 brain fractions by Western blot; type: in vivo, mouse; conditions: for soluble mutant tau (HT7), S1 fraction, subcortical brain region: from 4 h, maintained up to 36 h
Experimental: JNPL3 female mice 6 months of age were treated IP with the Hsp90 inhibitor PU-DZ8 (75 mg/kg) and sacrificed various times as indicated in FIG. 9. Brains were divided in subcortical and cortical regions and processed using the Greenberg and Davies extraction protocol (77). Sarkosyl soluble fractions (S1) extracted from the subcortical region were analyzed by WB for p35, cdk5, mutant tau (HT7), Hsp90 and Hsp70. Protein bands were normalized to actin and plotted as relative change from untreated mice.
To investigate whether the human TauP301L present in the JNPL3 line of mice is a sensitive target for Hsp90 inhibition, animals were treated with the brain-barrier permeable Hsp90 inhibitor PU-DZ8. This agent is a higher-potency water soluble derivative of PU24FC1 (EC50JNPL3 brain Hsp90=70 nM). One dose of PU-DZ8 (75 mg/kg) was administered intraperitoneally (i.p.) to female mice of 2.5-4 months in age (n=32) and animals were sacrificed in the interval of 0 to 36 h. Both aggregate-free Tau (S1) and insoluble Tau (P3) fractions were prepared from the subcortical and cortical regions of these mice. Human Tau levels were assessed by immunobloting with a human specific anti-Tau antibody (HT-7). […] We next examined in a 4- to 6-month old mouse group (n=15) whether the stability of mTau as present in tau aggregates (P3 fraction) was additionally regulated by Hsp90.
For experiments designed to test the kinetics of mTau and p35 modulation by Hsp90 inhibitors, animals were administered intraperitoneally (i.p.) 75 mg/kg PU-DZ8 in PBS (6% DMSO). Mice were sacrificed by CO2 euthanasia at the indicated times following PU-DZ8 administration. Hemibrains were separated into cortico-limbic (cortex, amygdale and hippocampus) and subcortical (basal ganglia, diencephalon, brain stem and cerebellum) regions, quickly frozen on dry ice and stored at −80° C. and processed. In summary, each brain piece was weighed and homogenized in three volumes of Tris-buffered saline (TBS) containing protease and phosphatase inhibitors (25 mM Tris-HCl, pH 7.4, 150 mM NaCl, 1 mM EDTA, 1 mM EGTA, 5 mM sodium pyrophosphate, 30 mM β-glycerophosphate, 30 mM sodium fluoride, 1 mM phenylmethylsulfonyl fluoride (PMSF)). The homogenates were centrifuged at 27,000 g for 15 min at 4° C. Supernatants were collected as S1 fractions, and the pellets (P1) were re-homogenized in three volumes of salt/sucrose buffer (0.8 M NaCl, 10% sucrose, 10 mM Tris/HCl, pH 7.4, 1 mM EGTA, 1 mM PMSF) and centrifuged as above. The resulting pellets were discarded and the supernatants were incubated with sarkosyl (Sigma, St Louis, Mo., USA; 1% final concentration) for 1 h at 37° C. The sarkosyl mixtures were then centrifuged at 150,000 g for 30 min at 4° C. The supernatants (S2 fraction) were collected, and the pellets (P3) were resuspended in 50 μL 2% SDS in TBS and stored at −80° C. for western blotting. Proteins were analyzed by Western blot.

[3] = cited from earlier work

**Q.** For `CC(C)NCCCn1c(Cc2cc3c(cc2I)OCO3)nc2c(N)nc(F)nc21` [PU-DZ8], which “whole brain expression of cdk5” value ([1]; 5 days i.p.) is on record?
**A.** Its value is “not affected”.

**Q.** And the “compound levels in brain” value ([1]; 5 days i.p., 12 h after last treatment)?
**A.** The value was “Pharmacologically relevant levels”.

**Q.** And the “p35 expression as compared to control” value ([1]; 5 days i.p., mice where effects were more prominent)?
**A.** The value was “approximately 20%”.

**Q.** And the “reduction in p35 levels” value ([1]; 5 days i.p., whole brain)?
**A.** Its value is 50%.

**Q.** And the “tau phosphorylation at putative cdk5 sites S202/T205 and T212” value ([1]; 5 days i.p., whole brain)?
**A.** The value was “significant amelioration”.

**Q.** What about the “phosphorylation on T212/S214 (Ab AT-100)” value ([1]; at 50% reduction in p35 levels) of the same molecule?
**A.** Its value is “almost completely”.

**Q.** And the “tau phosphorylated at T231 (Ab AT-180)” value ([1]; at a reduction by 50% in p35 expression)?
**A.** The value was “No significant effect”.

**Q.** What about the “reduction of tau phosphorylation on T231” value ([1]; mice where p35 declined to approximately 20% of control) of the same molecule?
**A.** The value was 50%.

**Q.** What about the “chaperone levels (hsp70)” value ([2]; one dose 75 mg/kg IP) of the same molecule?
**A.** The value was “hsp70 increase”.

**Q.** And the cdk5 expression ([2]; one dose 75 mg/kg i.p.)?
**A.** Its cdk5 expression is “No significant changes”.

**Q.** What about the “expressions of Akt and Raf-1” value ([2]; one dose 75 mg/kg i.p.) of the same molecule?
**A.** Its value is “not altered”.

**Q.** What about the “insoluble and hyperphosphorylated Tau (P3 fraction)” value ([2]; one dose 75 mg/kg i.p., 4- to 6-month old mice) of the same molecule?
**A.** The value was “significant reduction”.

**Q.** And the “soluble mutant tau (HT7), S1 fraction, subcortical brain region” value ([2]; one dose 75 mg/kg i.p.)?
**A.** The value was “significant decrease”.

**Q.** What about the “soluble mutant tau (HT7), S1 fraction, subcortical brain region” value ([2]; one dose 75 mg/kg i.p., listed as DZ8) of the same molecule?
**A.** The value was “degradation of the mutant protein”.

**Q.** What about the solubility [3] of the same molecule?
**A.** The solubility was “water soluble”.
